The assay has as its system monocytic THP1 cells infected with HIV VSV-G pseudotyped GFP-NEF reporter virus. Briefly: cells. The assay is classed as cell-based. The following applies: Human immunodeficiency virus 1, THP-1, 24 h.

For the compound `Cc1cc(/C=C/C#N)cc(C)c1Oc1nc(NC23CC(C#N)(C2)C3)nc2c1C(OCC(F)F)NC2=O` (stereo not shown) [Compound 289, (E)-3-((4-(4-(2-cyanovinyl)-2,6-dimethylphenoxy)-5-(2,2-difluoroethoxy)-7-oxo-6,7-dihydro-5H-pyrrolo[3,4-d]pyrimidin-2-yl)amino)bicyclo[1.1.1]pentane-1-carbonitrile], the half-maximal effective concentration (EC50) (as a rule, the concentration at which the effect is half-maximal) is 0.0529 µM. This lies in the double-digit nanomolar range. In turn, `Cc1cc(/C=C/C#N)cc(C)c1Oc1nc(NC23CC(C#N)(C2)C3)nc2c(=O)n(C)[nH]c12` [Compound 290, (E)-3-((7-(4-(2-cyanovinyl)-2,6-dimethylphenoxy)-2-methyl-3-oxo-2,3-dihydro-1H-pyrazolo[4,3-d]pyrimidin-5-yl)amino)bicyclo[1.1.1]pentane-1-carbonitrile] had an EC50 of 0.387 µM. In turn, `Cc1cc(/C=C/C#N)cc(C)c1Oc1nc(NC23CC(C#N)(C2)C3)nc2c(=O)n(C)n(C)c12` [Compound 291, (E)-3-((7-(4-(2-cyanovinyl)-2,6-dimethylphenoxy)-1,2-dimethyl-3-oxo-2,3-dihydro-1H-pyrazolo[4,3-d]pyrimidin-5-yl)amino)bicyclo[1.1.1]pentane-1-carbonitrile] displayed an EC50 of 0.0311 µM. Then `Cc1cc(/C=C/C#N)cc(C)c1Oc1nc(NC23CC(C#N)(C2)C3)nc2c(=O)n(C)n(C(F)F)c12` [Compound 292, (E)-3-((7-(4-(2-cyanovinyl)-2,6-dimethylphenoxy)-1-(difluoromethyl)-2-methyl-3-oxo-2,3-dihydro-1H-pyrazolo[4,3-d]pyrimidin-5-yl)amino)bicyclo[1.1.1]pentane-1-carbonitrile], with 0.0588 µM; and `COc1n[nH]c2c(Oc3c(C)cc(/C=C/C#N)cc3C)nc(NC34CC(C#N)(C3)C4)nc12` [Compound 293, (E)-3-((7-(4-(2-cyanovinyl)-2,6-dimethylphenoxy)-3-methoxy-1H-pyrazolo[4,3-d]pyrimidin-5-yl)amino)bicyclo[1.1.1]pentane-1-carbonitrile], with 0.0563 µM; and `CCOc1nn(CC)c2c(Oc3c(C)cc(/C=C/C#N)cc3C)nc(NC34CC(C#N)(C3)C4)nc12` [Compound 294, (E)-3-((7-(4-(2-cyanovinyl)-2,6-dimethylphenoxy)-3-ethoxy-1-ethyl-1H-pyrazolo[4,3-d]pyrimidin-5-yl)amino)bicyclo[11.1.1]pentane-1-carbonitrile], with 0.0233 µM.

Regarding `Cc1cc(/C=C/C#N)cc(C)c1Oc1nc(NC23CC(C#N)(C2)C3)nc2c(=O)n3n(c12)CCC3` [Compound 295, (E)-3-((4-(4-(2-cyanovinyl)-2,6-dimethylphenoxy)-10-oxo-7,8-dihydro-6H,10H-pyrazolo[1′,2′:1,2]pyrazolo[4,3-d]pyrimidin-2-yl)amino)bicyclo[1.1.1]pentane-1-carbonitrile], the concentration for a half-maximal effect (EC50) worked out at 0.0553 µM.

On to `Cc1cc(/C=C/C#N)cc(C)c1Oc1nc(NC23CC(C#N)(C2)C3)nc2snc(C)c12` [Compound 296, (E)-3-((4-(4-(2-cyanovinyl)-2,6-dimethylphenoxy)-3-methylisothiazolo[5,4-d]pyrimidin-6-yl)amino)bicyclo[1.1.1]pentane-1-carbonitrile], for which the EC50 was 0.0595 µM. The EC50 values of the last two compounds are within 1.5-fold of each other. Then `Cc1cc(/C=C/C#N)cc(C)c1Oc1nc(NC23CC(C#N)(C2)C3)nc2c1c(C)n[s+]2[O-]` (stereo not shown) [Compound 297, (E)-3-((4-(4-(2-cyanovinyl)-2,6-dimethylphenoxy)-3-methyl-1-oxidoisothiazolo[5,4-d]pyrimidin-6-yl)amino)bicyclo[1.1.1]pentane-1-carbonitrile], with 0.159 µM; and `CCOc1nc2nc(NC34CC(C#N)(C3)C4)nc(Oc3c(C)cc(/C=C/C#N)cc3C)c2n1C` [Compound 298, (E)-3-((6-(4-(2-cyanovinyl)-2,6-dimethylphenoxy)-8-ethoxy-7-methyl-7H-purin-2-yl)amino)bicyclo[1.1.1]pentane-1-carbonitrile], with 0.0873 µM.

The values are drawn from patent US20250333424A1, “ANTIVIRAL COMPOUNDS” (Gilead Sciences, Inc., priority 2024, published 2025).
